Measured values taken from patent publication US20100068150A1, “Selective Caspase Inhibitors” (The Board of Trustees of the Leland Stanford Junior …, priority 2006, published 2010).

Test system: endogenous caspases in 293 cytosolic extracts
Test: Direct labeling of endogenous caspases in apoptotic 293 cytosolic extracts
Type: binding
Conditions: 10 min after cytochrome c/dATP; bAB06 and bAB13 at 10 nM to 10 μM
Experimental: (a.) Hypotonic 293 cytosolic extracts were induced to undergo intrinsic apoptosis by addition of cytochrome c/dATP. KMB01, bAB06 and bAB13 were added 10 minutes after activation and labeling of caspase active sites was carried out for three minutes. Samples were analyzed by SDS-PAGE followed by biotin blotting using streptavidin-HRP. (b) The identity of individual caspases was confirmed via immunoprecipitation using specific anti-sera for caspases-3, 7 and 9 (also see FIG. 5B for immunoprecipitation of caspases-3 and 7 after KMB01 labeling). Extracts (293) were activated with cytochrome c/dATP for 10 minutes, labeled by addition of indicated probes (100 nM final concentration for bAB06 and bAB13 and 10 μM final concentration for KMB01) and labeled caspases precipitated using specific anti-sera as described in the Methods section. […] Labeling of caspases was monitored by SDS-PAGE followed by biotin blotting with streptavidin-HRP. […]
Selective labeling of endogenous caspases in cell extracts and live cells with active site probes was carried out as follows: Hypotonic 293 cytosolic extracts were induced to undergo intrinsic apoptosis by addition of cytochrome c/dATP. […] Samples were analyzed by SDS-PAGE followed by biotin blotting using streptavidin-HRP. […] Labeling of caspases was monitored by SDS-PAGE followed by biotin blotting with streptavidin-HRP. […]

Substance: Bio-EVD-AOMK [KMB01, reference compound]
- labeling of endogenous caspases in activated 293 extracts: labeled a 35 kDa caspase-9 species and the two primary mature forms of caspase3 at 17 and 20 kDa as well the 33 kDa full length N-peptide processed and 20 kDa mature forms of caspase-7
